The test system of one data set is IFN-γ. Nature of the data set: In vitro cross-presentation assay (IFN-γ release by B3Z cells). The settings on record: Hsp25-siRNA- and control-siRNA-treated BMDC; 10 μM. Format: cell-based, mouse.
The next data set concerns AsPC1 cells. Nature of the data set: MTS cytotoxicity assay, AsPC1 cells pre-treated with control or CH101. Format: cell-based. The settings on record: Homo sapiens, AsPC1, highly metastatic pancreatic cell, 48 h control or CH101 pre-treatment, then 72 h drug. The method, then: FIG. 8A-B. Combining CH101 with oxaliplatm synergistieally functions to reduce the IC50 in the highly agreesive, highly metastatic pancreatic cell, AsPC1, AsPC1 cells (10^6) were plated in 96-well plates and either pre-treated with control (top panel) or CH101 (bottom panel) for 48 hrs in a 37 degree C incubator. AsPC1 cells were then treated with various doses of oxaliplatm (A) or irlootecan (B) and further incubated for 72 h. Cytotoxicity was measured using the classical MTS assay.
(In general: Formazan colour is commonly taken as a measure of viable cells.)

In another data set the test system is Panc-1 cells. The data set can be described thus: MTS cytotoxicity assay, Panc-1 cells pre-treated with control or CH101. Type of data set: cell-based. To be noted: Panc-1, weakly metastatic pancreatic cell, 48 h control or CH101 pre-treatment, then 72 h drug. The method, then:
FIG. 7. Combining CH101 with oxaliplatin synergistically functions to reduce the IC50 in the weakly metastatic pancreatic cell Panc-1. Panc-1 cells (10^6) were plated in 96-well plates and either pre-treated with control (top panel) or CH101 (bottom panel) for 48 h in a 37 degree C incubator. Panc-1 cells were then treated with various doses of oxaliplatm and further incubated for 72 hours. Cytotoxicity was measured using the classical MTS assay.

In data set [1] the test system is MDA-MB-231, AsPC1, MCF7, Panc-1. The data set can be described thus: CH101 against highly metastatic versus non- or weakly metastatic cancers. The settings on record: MDA-MB-231 and AsPC1 versus MCF7 and Panc-1. Type of data set: cell-based.

The source of these data is patent US20140351961A1, “COMPOSITIONS AND METHODS FOR TREATMENT OF METASTATIC CANCER” (priority 2011, published 2014).

Residues, ends and D or L forms follow the SMILES beside them. *: point of attachment. Cbz = O=C(OCc1ccccc1)*

Regarding `CC(C)C[C@@H](C=O)NC(=O)[C@H](CC(C)C)NC(=O)[C@H](CC(C)C)NC(=O)OCc1ccccc1` [MG-132] (Cbz-Leu-Leu-Leu-aldehyde), the “IFN-γ released by B3Z cells after proteasome inhibitor pre-treatment” value with IFN-γ is listed as “significantly reduced the concentration of released IFN-γ”.

A word on the IC50: it is the concentration that inhibits the measured activity by half. On to `CCc1c2c(nc3ccc(OC(=O)N4CCC(N5CCCCC5)CC4)cc13)-c1cc3c(c(=O)n1C2)COC(=O)[C@]3(O)CC` [irinotecan], for which the IC50 in the data set on AsPC1 cells was found to be 36.8 µM.

With `O=C1[O][Pt]2([NH][C@@H]3CCCC[C@H]3[NH]2)[O]C1=O` [oxaliplatin], the IC50 with Panc-1 cells amounted to 23 µM.

B1: CH101: cocktail of two dsRNA molecules, dsRNA SEQ ID NO:8/SEQ ID NO:9 and dsRNA SEQ ID NO:10/SEQ ID NO:11, blocking Hsp27 (nucleic acid)
chain 1: AAGGACGAGCATGGCTACATC
chain 2: GATGTAGCCATGCTCGTCCTT
chain 3: CACAGCCGCCTCTTCGATCAA
chain 4: TTGATCGAAGAGGCGGCTGTG
modifications: two duplexes cocktail, further chemistry not given here
B1: the “relative effectiveness by metastatic type of cancer” value in data set [1] is on record as “more effective against highly metastatic cancers”.
